Measurements published in article PMC5522996, “Big conductance calcium‐activated potassium channel openers control spasticity without sedation” (British Journal of Pharmacology, 2017).

Columns and labels:
CYP450 2D6 = target: T1, CYP450 2D6 (Homo sapiens, UniProt P10635); test: CYP450 inhibition of dextromethorphan substrate in liver microsomes; type: in vitro ADME; conditions: read-out: IC50 Inhibition of substrate binding, VSN16R
T1 construct: from tissue; host or cells: liver microsomes
Excerpt: (§1) Inhibition of binding of either 3-cyano-7-ethoxycoumarin, dibenzylfluorescein or 7-benzyoxy-4-
(§2) (trifluoromethyl) coumarin in human enzyme transfected BTI NN-5B1-4 cells or Sf9 insect cells or
(§3) inhibition of dextromethorphan substrate to CYP450 2D6 in liver microsomes.

monoglycerol lipase = target: T2, monoglycerol lipase (Homo sapiens, UniProt Q99685); test: Receptor binding profile of VSN16R; conditions: 10µM VSN16R
T2 construct: purchased Cerep; Chantest; DiscoveRx; Multispan; MDS Pharma Services
T2 sequence (Q99685 whole entry): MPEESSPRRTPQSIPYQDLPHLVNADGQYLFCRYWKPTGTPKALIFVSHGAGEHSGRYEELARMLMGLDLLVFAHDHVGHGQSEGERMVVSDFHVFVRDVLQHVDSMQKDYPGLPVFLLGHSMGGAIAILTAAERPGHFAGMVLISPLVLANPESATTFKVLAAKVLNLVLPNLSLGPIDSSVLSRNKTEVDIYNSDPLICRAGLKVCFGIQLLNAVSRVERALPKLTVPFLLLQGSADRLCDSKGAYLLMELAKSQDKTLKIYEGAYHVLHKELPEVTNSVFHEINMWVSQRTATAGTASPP

BKCa channel = target: T3, BKCa channel (Homo sapiens, UniProt Q12791+Q86W47); test: Single‐channel inside‐out patch clamp, EA.hy926 cells; type: cell-based; conditions: 3 μM, inner surface of membrane, 40 mV, 0.3 μM free Ca^2+
T3 construct: host or cells: EA.hy926 endothelial cells
T3 sequence (Q12791 whole entry): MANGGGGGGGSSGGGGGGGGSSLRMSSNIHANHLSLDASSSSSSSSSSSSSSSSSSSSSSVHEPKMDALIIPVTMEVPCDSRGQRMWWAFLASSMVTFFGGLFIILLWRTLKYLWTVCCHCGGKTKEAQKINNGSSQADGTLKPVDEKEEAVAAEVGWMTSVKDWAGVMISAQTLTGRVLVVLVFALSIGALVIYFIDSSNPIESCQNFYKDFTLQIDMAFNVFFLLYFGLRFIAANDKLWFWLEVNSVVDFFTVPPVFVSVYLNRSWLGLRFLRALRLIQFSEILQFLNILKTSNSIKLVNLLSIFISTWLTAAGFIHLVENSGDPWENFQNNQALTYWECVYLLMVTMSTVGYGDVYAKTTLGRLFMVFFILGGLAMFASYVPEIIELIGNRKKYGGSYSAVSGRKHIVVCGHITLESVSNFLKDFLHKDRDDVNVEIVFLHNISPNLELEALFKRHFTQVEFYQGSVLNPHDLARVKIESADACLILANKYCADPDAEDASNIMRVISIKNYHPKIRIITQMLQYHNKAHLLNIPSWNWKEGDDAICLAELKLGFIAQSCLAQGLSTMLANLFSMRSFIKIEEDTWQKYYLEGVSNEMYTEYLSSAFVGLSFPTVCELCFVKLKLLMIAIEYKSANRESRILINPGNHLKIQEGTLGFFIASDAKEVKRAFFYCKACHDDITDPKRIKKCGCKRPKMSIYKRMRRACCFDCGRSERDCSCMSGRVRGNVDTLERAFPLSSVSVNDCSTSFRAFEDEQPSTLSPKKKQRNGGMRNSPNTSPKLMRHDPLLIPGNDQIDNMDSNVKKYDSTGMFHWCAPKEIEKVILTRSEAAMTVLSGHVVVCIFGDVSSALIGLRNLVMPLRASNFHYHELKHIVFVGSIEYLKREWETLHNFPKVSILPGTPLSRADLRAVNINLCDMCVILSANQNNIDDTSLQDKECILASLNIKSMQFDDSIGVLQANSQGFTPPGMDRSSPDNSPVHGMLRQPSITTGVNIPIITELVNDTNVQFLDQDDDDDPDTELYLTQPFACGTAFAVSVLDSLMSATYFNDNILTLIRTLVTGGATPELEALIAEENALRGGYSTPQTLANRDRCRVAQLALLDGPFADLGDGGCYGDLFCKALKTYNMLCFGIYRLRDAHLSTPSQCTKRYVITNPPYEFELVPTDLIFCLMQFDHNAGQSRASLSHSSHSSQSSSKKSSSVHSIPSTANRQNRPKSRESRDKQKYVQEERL
T3 sequence (Q86W47 whole entry): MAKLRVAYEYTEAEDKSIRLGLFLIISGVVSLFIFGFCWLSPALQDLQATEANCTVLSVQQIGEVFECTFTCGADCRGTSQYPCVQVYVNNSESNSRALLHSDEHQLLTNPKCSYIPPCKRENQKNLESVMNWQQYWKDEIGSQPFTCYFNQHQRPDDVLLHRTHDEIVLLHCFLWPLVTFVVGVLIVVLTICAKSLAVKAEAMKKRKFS
Experimental: The human EA.hy926 endothelial cells (ATCC, Manassas, USA) were grown in DMEM containing 10% FCS and 1% HAT (5 mM hypoxanthine, 20 μM aminopterin and 0.8 mM thymidine) and were maintained in an incubator at 37°C in 5% CO2 atmosphere (Bondarenko et al., 2013). Human HNC‐2 neuronal cells were obtained from ATCC. For experiments, cells were plated on glass coverslips. Single‐channel recordings were obtained from excised inside‐out membrane patches in symmetrical solutions using the patch‐clamp technique. All patch‐clamp experiments were performed at room temperature with the use of a water hydraulic micromanipulator (WR‐6, Narishige, Japan). […] The pipettes were filled with 140 mM KCl, 10 mM HEPES, 1 mM MgCl2, 5 mM EGTA and […] CaCl2 buffered to pH 7.2 by adding KOH. Cells were super‐perfused with a bath solution containing 140 mM NaCl, 5 mM KCl, 1.2 mM MgCl2, 10 mM HEPES, 10 mM glucose and 2.4 mM CaCl2. Following gigaseal formation, bath solution was switched to the following: 140 mM KCl, 10 mM HEPES, 1 mM MgCl2, 5 mM EGTA and a designated free Ca^2+ concentration, which was adjusted by adding different amounts of CaCl2 buffered to pH 7.2. (Bondarenko et al., 2011; Bondarenko et al., 2013). Single‐channel activity was expressed as NPo, where N represents the number of functional ion channels in the membrane patch and Po represents the open channel probability determined from idealized traces (Bondarenko et al., 2011). NPo was obtained from ≥20 s of continuous recording under each experimental condition. The effect of VSN16R was estimated after 3 min of continuous exposure to VSN16R‐containing solution. Data were analysed by ANOVA, and statistical significance was evaluated using Scheffés post hoc test of the Prism 5 software for Windows (GraphPad Software).

CYP450 1A2 = CYP450 1A2 (Homo sapiens, UniProt P05177); test: CYP450 inhibition of substrate binding
Sequence of CYP450 1A2 (P05177 whole entry): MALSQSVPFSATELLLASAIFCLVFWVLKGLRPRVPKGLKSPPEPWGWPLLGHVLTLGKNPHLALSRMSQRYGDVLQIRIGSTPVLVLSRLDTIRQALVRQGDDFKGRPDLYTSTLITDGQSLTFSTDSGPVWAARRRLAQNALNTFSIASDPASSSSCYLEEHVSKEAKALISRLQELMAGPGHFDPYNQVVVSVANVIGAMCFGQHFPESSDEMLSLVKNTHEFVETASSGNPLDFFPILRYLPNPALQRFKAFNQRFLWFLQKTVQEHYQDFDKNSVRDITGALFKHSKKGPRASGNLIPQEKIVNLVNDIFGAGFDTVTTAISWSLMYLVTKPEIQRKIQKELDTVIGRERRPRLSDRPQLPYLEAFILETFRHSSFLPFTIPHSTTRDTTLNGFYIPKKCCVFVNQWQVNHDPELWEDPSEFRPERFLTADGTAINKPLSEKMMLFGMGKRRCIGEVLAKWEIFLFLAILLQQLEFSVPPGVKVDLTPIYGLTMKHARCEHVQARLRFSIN
Excerpt: as §1, §2, §3

[1] = tested on: spastic ABH mice with EAE; test: Hoffman (H) reflex electrophysiology in spastic animals; type: in vivo, mouse; conditions: 30mg/kg i.v.
VIP1 = target: T4, VIP1 (Homo sapiens, UniProt P32241); test: Receptor binding profile of VSN16R; conditions: 10µM VSN16R
T4 construct: purchased Cerep; Chantest; DiscoveRx; Multispan; MDS Pharma Services
T4 sequence (P32241 31-457): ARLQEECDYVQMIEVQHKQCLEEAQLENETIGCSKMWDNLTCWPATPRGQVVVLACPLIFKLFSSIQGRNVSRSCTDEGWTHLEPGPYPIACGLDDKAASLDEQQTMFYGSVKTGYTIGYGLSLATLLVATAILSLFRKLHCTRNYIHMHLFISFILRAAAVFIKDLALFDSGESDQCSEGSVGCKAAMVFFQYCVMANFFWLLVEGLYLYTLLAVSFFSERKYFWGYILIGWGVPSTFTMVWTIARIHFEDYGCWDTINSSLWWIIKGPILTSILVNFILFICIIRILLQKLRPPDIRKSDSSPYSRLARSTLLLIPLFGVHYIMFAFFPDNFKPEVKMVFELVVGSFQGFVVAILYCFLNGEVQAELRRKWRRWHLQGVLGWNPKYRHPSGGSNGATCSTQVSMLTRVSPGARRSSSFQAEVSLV

EDG8 = target: T5, EDG8 (Homo sapiens, UniProt Q9H228); test: Receptor binding profile of VSN16R; conditions: 10µM VSN16R
T5 construct: purchased Cerep; Chantest; DiscoveRx; Multispan; MDS Pharma Services
T5 sequence (Q9H228 whole entry): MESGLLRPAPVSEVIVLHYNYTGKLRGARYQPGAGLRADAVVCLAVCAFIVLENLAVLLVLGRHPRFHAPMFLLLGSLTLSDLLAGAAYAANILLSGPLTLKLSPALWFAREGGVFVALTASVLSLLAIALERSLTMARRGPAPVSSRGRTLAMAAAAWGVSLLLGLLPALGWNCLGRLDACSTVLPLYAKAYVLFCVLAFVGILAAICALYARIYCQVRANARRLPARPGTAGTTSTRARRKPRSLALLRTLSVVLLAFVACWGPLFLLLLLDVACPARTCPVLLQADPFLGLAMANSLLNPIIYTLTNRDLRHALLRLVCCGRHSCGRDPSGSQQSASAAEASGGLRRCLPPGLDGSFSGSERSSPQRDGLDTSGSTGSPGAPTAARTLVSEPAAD

CYP450 2A6 = CYP450 2A6 (Homo sapiens, UniProt P11509); test: CYP450 inhibition of substrate binding
Sequence of CYP450 2A6 (P11509 whole entry): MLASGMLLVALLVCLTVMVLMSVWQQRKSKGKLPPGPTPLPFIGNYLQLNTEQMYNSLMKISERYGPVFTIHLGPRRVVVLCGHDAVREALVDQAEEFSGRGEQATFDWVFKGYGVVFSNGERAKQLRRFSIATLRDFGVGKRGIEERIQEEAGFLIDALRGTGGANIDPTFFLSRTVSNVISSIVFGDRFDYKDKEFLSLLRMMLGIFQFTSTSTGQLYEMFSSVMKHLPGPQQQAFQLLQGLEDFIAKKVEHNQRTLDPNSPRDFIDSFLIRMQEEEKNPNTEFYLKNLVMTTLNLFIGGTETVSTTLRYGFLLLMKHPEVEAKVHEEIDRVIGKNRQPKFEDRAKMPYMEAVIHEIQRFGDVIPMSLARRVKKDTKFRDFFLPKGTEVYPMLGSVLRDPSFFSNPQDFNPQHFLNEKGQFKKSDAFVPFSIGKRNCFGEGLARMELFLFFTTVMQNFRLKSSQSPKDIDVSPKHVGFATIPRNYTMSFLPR
Excerpt: as §1, §2, §3

rats = test: 28 day toxicology in rats (100, 300, 1000mg/kg p.o.); type: in vivo, rat
Experimental: Twenty‐eight day toxicology in rats and dogs for Investigational New Drug filing was performed by Charles Rivers (UK). Reproductive toxicology in rabbits was performed by Charles Rivers (Canada). Pharmacokinetic and/or toxicological doses ranged from 5 to 1000 mg·kg^−1 p.o. in Sprague Dawley male and female rats (n = 6‐26 per group), 50–200 mg·kg^−1 p.o. in male and female Beagle dogs (n = 6 per group) and 100–750 mg·kg^−1 p.o. in female New Zealand white rabbits (n = 9 per group). Results are expressed as mean ± SD.
Tissue Analysed Result of Tissue Analysis in Rats Result of Tissue Analysis in Dogs Artery, Aorta Negative Negative
Bone Marrow femur Negative Negative
Bone Marrow sternum Negative Negative
Bone, Sternum Negative Negative
Epididymus Negative Negative
Adrenal Gland Negative Negative
Mammary Grand Negative Negative
Parathyroid Gland Negative Negative
Pituitary Gland Negative Negative
Prostate Gland Negative Negative
Salivary Gland Negative Negative
Seminal Vesicle Gland Negative Negative
Gut associated lymphoid Negative Negative
Large Intestine caecum Negative Negative
Large Intestine colon Negative Negative
Large Intestine rectum Negative Negative
Mandibular Lymph Node Negative Negative
Mesenteric Lymph Node Negative Negative
Skeletal Muscle Negative Negative
Nasal Cavity Negative Negative
Sciatic Nerve Negative Negative
Oesophagus Negative Negative
Pancreas Negative Negative
Small Intestine, duodenum Negative Negative
Small Intestine, Ileum Negative Negative […]
Following 28 day toxicology of feeding either: rats treated with 100mg/kg, 300mg/kg, 1000mg/kg p.o. (n-20/group) or dogs treated with 50mg/kg, 100mg/kg or 200mg/kg p.o. (n=6/group). […] Studies were performed by Charles Rivers, Ltd. However, * There was hypertrophy of the liver that was evident at high doses VSN16R was associated with liver weight (mean ± SD) increases: 11.0 ± 1.2g placebo, 11.6 ± 1.3g (300mg/kg p.o.), 16.7 ± 2.1g (1000mg/kg p.o. P<0.001 assessed using Students t test. n= 10 female rats/group) associated with liver enzyme induction, supporting enhanced VSN16R clearance in pharmacokinetic studies. […]

CYP450 2E1 = target: T6, CYP450 2E1 (Homo sapiens, UniProt P05181); test: CYP450 inhibition of substrate binding; type: in vitro ADME; conditions: read-out: IC50 Inhibition of substrate binding, VSN16R
T6 construct: host or cells: BTI NN-5B1-4 or Sf9 insect cells
T6 sequence (P05181 whole entry): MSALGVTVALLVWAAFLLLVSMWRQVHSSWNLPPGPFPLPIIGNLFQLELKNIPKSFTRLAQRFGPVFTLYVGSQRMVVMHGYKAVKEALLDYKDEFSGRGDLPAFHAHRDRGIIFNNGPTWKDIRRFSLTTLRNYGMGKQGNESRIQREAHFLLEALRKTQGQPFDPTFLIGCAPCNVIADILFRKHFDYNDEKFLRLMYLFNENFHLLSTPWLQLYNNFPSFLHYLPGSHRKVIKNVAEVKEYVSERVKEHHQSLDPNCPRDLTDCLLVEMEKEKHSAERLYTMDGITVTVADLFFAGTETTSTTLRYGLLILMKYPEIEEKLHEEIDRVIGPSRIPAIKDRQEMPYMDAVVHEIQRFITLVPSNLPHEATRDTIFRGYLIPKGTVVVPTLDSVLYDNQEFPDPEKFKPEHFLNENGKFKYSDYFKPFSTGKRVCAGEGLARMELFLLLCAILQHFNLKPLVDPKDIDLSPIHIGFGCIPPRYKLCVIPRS
Excerpt: as §1, §2, §3

MC4 = target: T7, MC4 (Homo sapiens, UniProt P32245); test: Receptor binding profile of VSN16R; conditions: 10µM VSN16R
T7 construct: purchased Cerep; Chantest; DiscoveRx; Multispan; MDS Pharma Services
T7 sequence (P32245 whole entry): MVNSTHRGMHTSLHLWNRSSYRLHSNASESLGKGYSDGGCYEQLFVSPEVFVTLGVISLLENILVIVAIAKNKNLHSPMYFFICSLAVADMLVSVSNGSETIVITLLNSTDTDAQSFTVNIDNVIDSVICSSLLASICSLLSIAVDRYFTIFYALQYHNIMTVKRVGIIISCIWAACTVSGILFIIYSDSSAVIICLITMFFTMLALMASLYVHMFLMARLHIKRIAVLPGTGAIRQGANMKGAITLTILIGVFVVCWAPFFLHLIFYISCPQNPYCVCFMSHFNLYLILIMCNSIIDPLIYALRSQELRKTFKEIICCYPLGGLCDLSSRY

T1 sequence (P10635 whole entry): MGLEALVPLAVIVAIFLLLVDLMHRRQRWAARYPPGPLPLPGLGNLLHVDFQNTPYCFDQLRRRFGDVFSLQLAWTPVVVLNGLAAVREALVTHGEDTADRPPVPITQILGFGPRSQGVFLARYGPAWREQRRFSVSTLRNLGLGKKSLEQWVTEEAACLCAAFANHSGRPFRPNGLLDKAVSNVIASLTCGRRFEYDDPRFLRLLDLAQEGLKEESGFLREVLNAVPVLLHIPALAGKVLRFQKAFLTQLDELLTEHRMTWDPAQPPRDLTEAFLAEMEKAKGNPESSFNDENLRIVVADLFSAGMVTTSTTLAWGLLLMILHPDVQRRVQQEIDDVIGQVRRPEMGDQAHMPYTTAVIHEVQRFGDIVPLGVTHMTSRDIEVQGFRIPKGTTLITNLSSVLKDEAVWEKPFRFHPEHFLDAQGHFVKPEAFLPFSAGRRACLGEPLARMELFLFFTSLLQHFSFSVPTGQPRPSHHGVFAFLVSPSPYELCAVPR

With C[C@H](CO)NC(=O)c1cccc(/C=C\CCCC(=O)N(C)C)c1 [VSN16R] the IC50 (CYP450 2D6) was > 30 µM, the Activity (monoglycerol lipase) was “Negligible Activity” and the “Single BKCa channel activity” value (BKCa channel) was “facilitated single BKCa channel activity”. For the same compound, the IC50 (CYP450 1A2) was > 10 µM, the “Animals with H reflex inhibited” value [1] was 3/5 and the Activity (VIP1) was “Negligible Activity”. The Activity (EDG8) was “Negligible Activity”, the IC50 (CYP450 2A6) was > 10 µM and the “Histological analysis of animal tissues” value (rats; both, Sprague Dawley (rat), rat, in vivo, 28 days) was “essentially no significant microscopic findings attributable to VSN16R”. For the same compound, the NOEL (rats; p.o., rats over 28 days) was 1000 mg/kg, the Clinical signs (rats; rat, in vivo) was “occasional salivation and ‘ploughing’ behaviours” and the IC50 (CYP450 2E1) was > 10 µM. The Activity (MC4) was “Negligible Activity”.
